Literature values, collected in patent publication US20070003628A1, “Nanoparticulate clopidogrel formulations” (Elan Pharma International Limited, priority 2005, published 2007).
Where a name gives a salt, the structure may show the parent alone. Read-outs that look alike come from different tables or passages of the source.

Tests used:
[1] = not given; remark: listed apart in the source

Structure (SMILES) | solubility in ethyl ether (ethyl ether) | solubility in methanol (methanol) | solubility in methylene chloride (methylene chloride) | solubility in water (pH 1.0) | solubility in water (water at neutral pH) | rate of a combined end point of cardiovascular death, MI, or stroke, and of cardiovascular death, MI, stroke, or refractory ischemia ([1]; patients with acute coronary syndrome) | rate of a combined end point of new ischemic stroke, new MI, and other vascular death ([1]; recent myocardial infarction, recent stroke or established arterial disease) | solubility in water (water, pH not stated)
COC(=O)[C@H](c1ccccc1Cl)N1CCc2sccc2C1 [Clopidogrel bisulfate, methyl (+)-(S)-α-(2-chorophenyl)-6,7-dihydrothieno[3,2-c]pyridine-5(4H)-acetate sulfate (1:1)] | practically insoluble | dissolves freely | dissolves sparingly | freely soluble | practically insoluble | decrease the rate | reduce the rate | 
COC(=O)[C@H](c1ccccc1Cl)N1CCc2sccc2C1 [clopidogrel] |  |  |  |  |  |  |  | practically insoluble
